In patent EP2351737A1, “3-Amino-1-arylpropyl indoles and aza-substituted indoles” (F. Hoffmann-La Roche AG, priority 2005, dated 2007):

How the values were obtained:
[1] = biological target: Human Norepinephrine Transporter (hNET) (Homo sapiens, UniProt P23975); assay: Human Norepinephrine Transporter (hNET) Scintillation Proximity Assay (SPA), competition with [3H]-Nisoxetine; settings: membranes of HEK-293 cells expressing recombinant hNET, Ki by Cheng-Prusoff; for Ki: pKi NET
[2] = biological target: T1, Human Serotonin Transporter (hSERT) (Homo sapiens, UniProt P31645); assay: Human Serotonin Transporter (hSERT) Scintillation Proximity Assay (SPA), competition with [3H]-Citalopram; type: binding; settings: membranes of HEK-293 cells expressing recombinant hSERT, Ki by Cheng-Prusoff; for Ki: read-out: pKi SERT (converted)
T1 construct: expressed in transfected cells; membranes prepared from them
T1 sequence (P31645 whole entry): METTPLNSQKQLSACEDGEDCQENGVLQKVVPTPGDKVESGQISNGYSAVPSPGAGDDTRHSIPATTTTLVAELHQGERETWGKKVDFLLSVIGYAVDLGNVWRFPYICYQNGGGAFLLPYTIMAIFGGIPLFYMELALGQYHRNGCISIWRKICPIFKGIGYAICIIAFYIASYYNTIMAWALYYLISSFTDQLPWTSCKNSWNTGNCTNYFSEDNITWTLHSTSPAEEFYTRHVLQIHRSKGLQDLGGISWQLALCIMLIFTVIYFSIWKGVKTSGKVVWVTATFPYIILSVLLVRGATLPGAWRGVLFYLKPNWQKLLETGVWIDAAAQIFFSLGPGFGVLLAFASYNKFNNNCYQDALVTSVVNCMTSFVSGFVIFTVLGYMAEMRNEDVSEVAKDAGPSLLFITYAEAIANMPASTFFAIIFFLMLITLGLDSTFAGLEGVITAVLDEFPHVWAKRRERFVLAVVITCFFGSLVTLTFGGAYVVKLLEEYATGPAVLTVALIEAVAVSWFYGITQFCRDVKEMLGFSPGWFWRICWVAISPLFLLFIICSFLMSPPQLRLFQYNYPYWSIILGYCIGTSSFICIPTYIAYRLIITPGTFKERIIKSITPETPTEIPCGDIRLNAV
Excerpt: Screening for Human Serotonin Transporter (hSERT) Antagonists Using a Scintillation Proximity Assay (SPA)
Scintillation Proximity Assay (SPA) works by bringing radioligand within close proximity to the bead's scintillant to stimulate light emission. […] Unbound radioligand produced no signal as a result of distant proximity to scintillant (lack of energy transfer).

Sequence of Human Norepinephrine Transporter (hNET) (P23975 whole entry): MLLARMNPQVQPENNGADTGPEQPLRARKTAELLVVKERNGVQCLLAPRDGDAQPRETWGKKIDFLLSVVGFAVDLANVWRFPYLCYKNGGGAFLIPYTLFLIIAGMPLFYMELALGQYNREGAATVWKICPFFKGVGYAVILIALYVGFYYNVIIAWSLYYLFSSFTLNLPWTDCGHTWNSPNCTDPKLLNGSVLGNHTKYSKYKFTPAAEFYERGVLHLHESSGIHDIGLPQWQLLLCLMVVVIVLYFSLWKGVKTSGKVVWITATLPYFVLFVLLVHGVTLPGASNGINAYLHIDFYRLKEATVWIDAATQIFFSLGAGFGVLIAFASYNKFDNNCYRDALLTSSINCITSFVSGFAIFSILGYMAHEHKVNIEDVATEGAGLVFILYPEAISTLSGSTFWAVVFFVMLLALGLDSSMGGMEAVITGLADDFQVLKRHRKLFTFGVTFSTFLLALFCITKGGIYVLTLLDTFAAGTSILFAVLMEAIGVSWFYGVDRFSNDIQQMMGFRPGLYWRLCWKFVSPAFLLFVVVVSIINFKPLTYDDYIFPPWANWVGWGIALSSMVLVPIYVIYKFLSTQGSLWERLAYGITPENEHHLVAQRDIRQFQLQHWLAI

Row | Compound | pKi NET [1] | pKi SERT [2] | Ki [1] | Ki [2]
1 | 5-[1-(1H-Indol-5-yl)-3-methylamino-propyl]-1H-indole-3-carbonitrile [Compound 122] | 7.7 | 9.24 |  | 
2 | CNCCC(c1ccccc1)c1ccc2[nH]cc(C(=O)N(C)C)c2c1 (centres unmarked) [Compound 92, 5-(3-Methylamino-1-phenyl-propyl)-1H-indole-3-carboxylic acid dimethylamide] |  |  | 0.316 µM | 0.0355 µM
3 | CNCCC(c1ccc2[nH]ccc2c1)c1cccc2cc[nH]c12 (centres unmarked) [Compound 121, [3-(1H-Indol-7-yl)-3-(1H-indol-5-yl)-propyl]-methyl-amine] |  |  | 0.0562 µM | 0.0468 µM
4 | [3-(1-Methanesulfonyl-1H-indol-5-yl)-3-phenyl-propyl]-methyl-amine hydrochloride [Compound 14] | 6.57 | 7.55 |  | 
5 | CNCCC(c1ccccc1)c1cc(C(F)(F)F)c2[nH]ncc2c1 (centres unmarked) [Compound 85, Methyl-[3-phenyl-3-(7-trifluoromethyl-1H-indazol-5-yl)-propyl]-amine] |  |  | 0.0151 µM | 0.0214 µM
6 | [3-(7-Fluoro-1H-indol-5-yl)-3-(4-methoxy-phenyl)-propyl]-methyl-amine [Compound 98] | 8.3 | 7.88 |  | 
7 | [3,3-Bis-(7-fluoro-1H-indol-5-yl)-propyl]-methyl-amine [Compound 118] | 8.87 | 7.43 |  | 
8 | CNCCC(c1ccccc1)c1ccc2[nH]nc(OCC3CC3)c2c1 (centres unmarked) [Compound 81, [3-(3-Cyclopropylmethoxy-1H-indazol-5-yl)-3-phenyl-propyl]-methyl-amine] |  |  | 0.214 µM | 0.0562 µM
9 | CNCCC(c1ccc2[nH]ccc2c1)c1ccc2nccnc2c1 (centres unmarked) [Compound 123, [3-(1H-Indol-5-yl)-3-quinoxalin-6-yl-propyl]-methyl-amine] |  |  | 0.112 µM | 0.0479 µM
10 | CNCCC(c1ccccc1)c1cc2cc[nH]c2cc1F (centres unmarked) [Compound 102, [3-(6-Fluoro-1H-indol-5-yl)-3-phenyl-propyl]-methyl-amine] |  |  | 0.0288 µM | 0.0776 µM
11 | CNCCC(c1ccccc1)c1ccc2sccc2c1 (centres unmarked) [Compound 143, (3-Benzo[b]thiophen-5-yl-3-phenyl-propyl)-methyl-amine] |  |  | 0.00155 µM | 0.0224 µM
12 | [3-(7-Methoxy-1H-indol-5-yl)-3-phenyl-propyl]-methyl-amine [Compound 22] | 8.39 | 7.66 |  | 
13 | NCCC(c1ccccc1)c1cc(Cl)c2[nH]c(C(N)=O)cc2c1 (centres unmarked) [Compound 103, 5-(3-Amino-1-phenyl-propyl)-7-chloro-1H-indole-2-carboxylic acid amide] |  |  | 0.00437 µM | 0.145 µM
14 | CNCCC(c1ccccc1)c1ccc2[nH]cc(C(N)=O)c2c1 (centres unmarked) [Compound 91, 5-(3-Methylamino-1-phenyl-propyl)-1H-indole-3-carboxylic acid amide] |  |  | 0.603 µM | 0.0339 µM
15 | CNCCC(c1ccccc1)c1ccc2[nH]c(C(N)=O)cc2c1 (centres unmarked) [Compound 24, 5-(3-Methylamino-1-phenyl-propyl)-1H-indole-2-carboxylic acid amide] |  |  | 0.00288 µM | 0.0708 µM
16 | 7-Chloro-5-(3-methylamino-1-phenyl-propyl)-1H-indole-2-carboxylic acid amide [Compound 105] | 8.35 | 7.31 |  | 
17 | CNCCC(c1ccccc1)c1ccc2[nH]ccc2c1F (centres unmarked) [Compound 97, [3-(4-Fluoro-1H-indol-5-yl)-3-phenyl-propyl]-methyl-amine] |  |  | 0.017 µM | 0.00933 µM
18 | CNCCC(c1ccc2[nH]ccc2c1)c1nccs1 (centres unmarked) [Compound 139, [3-(1H-Indol-5-yl)-3-thiazol-2-yl-propyl]-methyl-amine] |  |  | 0.0741 µM | 
19 | CNCCC(c1ccc2[nH]ccc2c1)c1nc2ccccc2s1 (centres unmarked) [Compound 140, [3-Benzothiazol-2-yl-3-(1H-indol-5-yl)-propyl]-methyl-amine] |  |  | 0.00933 µM | 0.0112 µM
20 | 7-Fluoro-5-(3-methylamino-1-(S)-phenyl-propyl)-1H-indole-3-carbonitrile [Compound 104] | 7.49 | 8.1 |  | 
21 | NCCC(c1ccc2ncccc2c1)c1ccc2[nH]ccc2c1 (centres unmarked) [Compound 120, 3-(1H-Indol-5-yl)-3-quinolin-6-yl-propylamine] |  |  | 0.141 µM | 0.00324 µM
22 | CNCCC(c1ccccc1)c1cc(F)c2c(c1)c(C#N)cn2C (centres unmarked) [Compound 127, 7-Fluoro-1-methyl-5-(3-methylamino-1-phenyl-propyl)-1H-indole-3-carbonitrile] |  |  | 0.0513 µM | 0.00832 µM
23 | CNCCC(c1ccccc1)c1ccc2[nH]cc(S(=O)(=O)N(C)C)c2c1 (centres unmarked) [Compound 90, 5-(3-Methylamino-1-phenyl-propyl)-1H-indole-3-sulfonic acid dimethylamide] |  |  | 0.24 µM | 0.038 µM
24 | CNCCC(c1ccccc1)c1cc(F)c2[nH]cc(C#N)c2c1 (centres unmarked) [Compound 19] |  |  | 0.0562 µM | 0.00214 µM
